Measurements from US20040248887A1, “Inhibitors of cathepsin S” (IRM LLC, priority 2003, published 2004).
Like-named read-outs stand apart in the source and are kept apart here.

Assays:
Assay type in all cases: biochemical
Cathepsin L = Cathepsin L (Homo sapiens, UniProt P07711); assay: Cathepsin L inhibition, fluorogenic peptide substrate kinetic assay; conditions: Table III; Cathepsin L inhibition constant, pH5.5; read-out: Ki Cat. L
Description: (§1) Kinetic measurements are performed in a total reaction volume of 30 μl in 384-well microtiter plates. […] The reactions are initiated by adding the substrate, acetyl-histidine-lysine-phenylalanine-lysine-amino carbamoyl coumarin, to a final concentration of 20 μM. The rate of substrate hydrolysis is measured by monitoring the increase in fluorescence at an excitation wavelength of 380 nm and an emission wavelength of 450 nm that results from cleavage of the aniline bond in the substrate by the enzyme. The apparent inhibition constants for the compounds are determined from the enzyme progress curves (Kuzmic, P., K. C. Elrod, et al., Anal Biochem 2000, 286(1), 45-50) and are then used to calculate the inhibition constants for competitive inhibitors.

Cathepsin S = Cathepsin S (Homo sapiens, UniProt P25774); assay: Cathepsin S inhibition, fluorogenic peptide substrate kinetic assay; conditions: Cathepsin S inhibition constant, pH5.5, read-out: Ki Cat. S
Cathepsin S, sequence (P25774 115-331, species assumed): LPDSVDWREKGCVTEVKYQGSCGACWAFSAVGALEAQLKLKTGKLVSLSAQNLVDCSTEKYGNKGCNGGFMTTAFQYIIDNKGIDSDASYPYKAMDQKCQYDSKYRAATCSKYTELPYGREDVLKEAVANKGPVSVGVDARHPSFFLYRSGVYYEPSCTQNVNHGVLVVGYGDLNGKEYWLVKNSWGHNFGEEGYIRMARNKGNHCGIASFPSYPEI
Summary of the method: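 Ki values derive from apparent constants fitted to progress curves, corrected for competition with substrate via [S] and Km. Kinetics were monitored at 380 nm excitation/450 nm emission, after substrate addition (Ac-HPVK-ACC, 50 μM final) to start the reaction.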

Cathepsin K = target: T1, Cathepsin K (Homo sapiens, UniProt P43235); assay: Cathepsin K inhibition, fluorogenic peptide substrate kinetic assay; conditions: Table III; Cathepsin K inhibition constant, pH5.5; read-out: Ki Cat. K
T1 sequence (P43235 115-329): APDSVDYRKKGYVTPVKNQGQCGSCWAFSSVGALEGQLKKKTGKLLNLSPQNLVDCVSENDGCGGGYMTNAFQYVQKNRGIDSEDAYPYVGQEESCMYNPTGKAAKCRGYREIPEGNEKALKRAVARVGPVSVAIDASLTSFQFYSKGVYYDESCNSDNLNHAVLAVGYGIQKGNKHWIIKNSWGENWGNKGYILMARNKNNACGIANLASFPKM
Description: as §1, with “The optimal substrate for cathepsin K, acetyl-lysine-histidine-proline-lysine-amino carbamoyl coumarin, was identified from screening a combinatorial library of fluorogenic peptide substrates (Harris, J. L., B. J. Backes, et al., Proc Natl Acad Sci U S A 2000, 97(14), 7754-9). Kinetic” for “Kinetic”, “substrate, acetyl-lysine-histidine-proline-lysine-amino” for “substrate, acetyl-histidine-lysine-phenylalanine-lysine-amino”, “of 40” for “of 20”

Cathepsin B = Cathepsin B (Homo sapiens, UniProt P07858); assay: Cathepsin B inhibition, fluorogenic peptide substrate kinetic assay; conditions: Table III; Cathepsin B inhibition constant, pH5.5; read-out: Ki Cat. B
Description: The optimal substrate for cathepsin B, acetyl-histidine-proline-valine-lysine-amino carbamoyl coumarin, was identified from screening a combinatorial library of fluorogenic peptide substrates (Harris, J. L., B. J. Backes, et al., Proc Natl Acad Sci USA 2000, 97(14), 7754-9). Kinetic measurements are performed in a total reaction volume of 30 μl in 384-well microtiter plates. Cathepsin B, at a final concentration of 1.5 nM (active site), is incubated with the compounds at twelve varying concentrations in a buffer containing 100 mM NaAc (pH5.5), 1 mM EDTA, 100 mM NaCl, 0.01% Brij-35 for 20 minutes at room temperature. Control reactions in the absence of inhibitor are performed in replicates of 24. The reactions are initiated by adding the substrate, acetyl-histidine-proline-valine-lysine-amino carbamoyl coumarin, to a final concentration of 10 μM. The rate of substrate hydrolysis is measured by monitoring the increase in fluorescence at an excitation wavelength of 380 nm and an emission wavelength of 450 nm that results from cleavage of the aniline bond in the substrate by the enzyme. The apparent inhibition constants for the compounds are determined from the enzyme progress curves (Kuzmie, P., K. C. Elrod, et al., Anal Biochem 2000, 286(1), 45-50) and are then used to calculate the inhibition constants for competitive inhibitors.

Cathepsin L, sequence (P07711 114-333, species assumed): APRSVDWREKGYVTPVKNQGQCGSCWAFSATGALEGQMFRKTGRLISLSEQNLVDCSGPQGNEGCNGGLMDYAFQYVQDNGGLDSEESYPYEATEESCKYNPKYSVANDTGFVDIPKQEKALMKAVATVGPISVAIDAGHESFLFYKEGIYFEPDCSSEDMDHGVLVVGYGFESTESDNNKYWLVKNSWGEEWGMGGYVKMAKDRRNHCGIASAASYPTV

| Structure (SMILES) | Ki (Cathepsin L) [nM] | Ki (Cathepsin S; Table II) [nM] | Ki (Cathepsin S; Table III) [nM] | Ki (Cathepsin K) [nM] | Ki (Cathepsin B) [nM] |
| --- | --- | --- | --- | --- | --- |
| C[C@@H](CNc1cccc(C(N)=O)c1)NC(=O)[C@H](CC(C)(C)C)NC(=O)c1ccc(-c2cccc(F)c2)o1 [Compound 131, 5-(3-Fluoro-phenyl)-furan-2-carboxylic acid {1-(S)-[2-(3-carbamoyl-phenylamino)-1-(S)-methyl-ethylcarbamoyl]-3,3-dimethyl-butyl}-amide] | > 10000 | < 100 | < 100 | < 1000 | > 10000 |
| C[C@@H](CNc1cc(F)ccc1F)NC(=O)[C@H](CC1CCCCC1)NC(=O)c1ccc(-c2cccc(F)c2)o1 [Compound 91, 5-(3-Fluoro-phenyl)-furan-2-carboxylic acid {2-cyclohexyl-1-(S)-[2-(2,5-difluoro-phenylamino)-1-(S)-methyl-ethylcarbamoyl]-ethyl}-amide] | < 1000 | < 100 | < 100 | < 10000 | < 10000 |
| Cc1noc(C)c1NC(=O)N[C@@H](CC1CCCCC1)C(=O)NCCN1CCc2cc(F)ccc21 [Compound 221] | > 10000 | < 1000 | < 1000 | > 10000 | > 10000 |
| COc1cccc(C(=O)N[C@@H](CCC2CCCCC2)C(=O)N[C@H](CN2CCc3cc(F)ccc32)c2ccccc2)c1 [Compound 51, (S,S)-N-{3-Cyclohexyl-1-[2-(5-fluoro-2,3-dihydro-indol-1-yl)-1-phenyl-ethylcarbamoyl]-propyl}-3-methoxy-benzamide] |  |  |  |  | > 10000 |
| COC(=O)c1cccc(NC[C@H](C)NC(=O)[C@H](CC2CCCCC2)NC(=O)c2ccc(-c3cccc(F)c3)o2)c1 [Compound 110, 3-[2-(S)-(3-Cyclohexyl-2-(S)-{[5-(3-fluoro-phenyl)-furan-2-carbonyl]-amino}-propionylamino)-propylamino]-benzoic acid methyl ester] | < 10000 | < 1000 | < 1000 | < 10000 | > 10000 |
| C[C@@H](CNc1ccc(OC(F)(F)F)cc1)NC(=O)[C@H](CC1CCCCC1)NS(=O)(=O)c1cccc(Cl)c1 [Compound 181, (S,S)-2-(3-Chloro-benzenesulfonylamino)-3-cyclohexyl-N-[1-methyl-2-(4-trifluoromethoxy-phenylamino)-ethyl]-propionamide] | < 10000 | < 100 | < 100 | > 10000 | > 10000 |
| Cc1cccc(C(=O)N[C@@H](CC2CCCC2)C(=O)NCCN2CCc3cc(F)ccc32)c1 [Compound 201, (S)-N-{2-Cyclopentyl-1-[2-(5-fluoro-2,3-dihydro-indol-1-yl)-ethylcarbamoyl]-ethyl}-3-methyl-benzamide] | < 1000 | < 100 | < 100 | < 10000 | > 10000 |
| Cc1cccc(S(=O)(=O)N[C@@H](CC2CCCCC2)C(=O)N[C@@H](C)CN2CCc3cc(F)ccc32)c1 [Compound 251, (S,S)-3-Cyclohexyl-N-[2-(5-fluoro-2,3-dihydro-indol-1-yl)-1-methyl-ethyl]-2-(toluene-3-sulfonylamino)-propionamide] | < 10000 | < 100 | < 100 | > 10000 | > 10000 |
| Cc1ccccc1C(C)C(=O)N[C@@H](CC1CCCCC1)C(=O)NCCN1CCc2cc(F)ccc21 (stereo partly drawn) [Compound 61, N-{2-cyclohexyl-1-(S)-[2-(5-fluoro-2,3-dihydro-indol-1-yl)-ethylcarbamoyl]-ethyl}-2-o-tolyl-propionamide] | < 100 | < 100 | < 100 | > 10000 | > 10000 |
| COc1ccc(NCC(C)NC(=O)[C@H](CC(C)C)NC(=O)c2cccc(C)c2)cc1 (mixture of isomers) [Compound 21, N-{1-(S)-[2-(4-Methoxy-phenylamino)-1-methyl-ethylcarbamoyl]-3-methyl-butyl}-3-methyl-benzamide] |  |  |  |  | > 10000 |
| COc1c(C)cc(NC[C@H](C)NC(=O)[C@H](CC2CCCCC2)NC(=O)c2ccc(-c3cccc(F)c3)o2)cc1C [Compound 115, 5-(3-Fluoro-phenyl)-furan-2-carboxylic acid {2-cyclohexyl-1-(S)-[2-(4-methoxy-3,5-dimethyl-phenylamino)-1-(S)-methyl-ethylcarbamoyl]-ethyl}-amide] |  | < 100 |  |  |  |
| Cc1cccc(C(=O)N[C@@H](CC(C)(C)C)C(=O)NCCN2CCc3cc(F)ccc32)c1 [Compound 203, N-((S)-1-(2-(5-fluoroindolin-1-yl)ethylcarbamoyl)-3,3-dimethylbutyl)-3-methylbenzamide] |  | < 100 |  |  |  |
| C[C@@H](CN1CCc2cc(F)ccc21)NC(=O)[C@H](CC1CCCCC1)NS(=O)(=O)c1ccccc1 [Compound 264, (S,S)-2-Benzenesulfonylamino-3-cyclohexyl-N-[2-(5-fluoro-2,3-dihydro-indol-1-yl)-1-methyl-ethyl]-propionamide] |  | < 100 |  |  |  |
| COc1ccc(NC[C@H](C)NC(=O)[C@H](CCC2CCCCC2)NC(=O)c2ccc(-c3cccc(C(F)(F)F)c3)o2)cc1 [Compound 27, 5-(3-Trifluoromethyl-phenyl)-furan-2-carboxylic acid {3-cyclohexyl-(1S)-[2-(4-methoxy-phenylamino)-(1S)-methyl-ethylcarbamoyl]-propyl}-amide] |  | < 100 |  |  |  |
| O=C(NC(C(=O)N[C@@H](COCc1ccccc1)CN1CCc2cc(F)ccc21)c1ccc(Cl)cc1Cl)c1ccco1 (mixture of isomers) [Compound 207, N-(R,S)-((3-(benzyloxy)-1-(5-fluoroindolin-1-yl)propan-2-(R)-ylcarbamoyl)(2,4-dichlorophenyl)methyl)furan-2-carboxamide] |  | < 100 |  |  |  |
| O=C(NCCN1CCc2cc(F)ccc21)[C@H](CC1CCCCC1)NS(=O)(=O)c1scc(Br)c1Cl [Compound 224, (S)-2-(4-Bromo-3-chloro-thiophene-2-sulfonylamino)-3-cyclohexyl-N-[2-(5-fluoro-2,3-dihydro-indol-1-yl)-ethyl]-propionamide] |  | < 1000 |  |  |  |
| COc1cccc(C(=O)N[C@@H](CCC2CCCCC2)C(=O)N[C@@H](CCCCN)CN2CCc3cc(F)ccc32)c1 [Compound 167, N-{1-(S)-[5-Amino-1-(S)-(5-fluoro-2,3-dihydro-indol-1-ylmethyl)-pentylcarbamoyl]-3-cyclohexyl-propyl}-3-methoxy-benzamide] |  | < 100 |  |  |  |
| CSc1ccc(NC[C@H](C)NC(=O)[C@H](CC2CCCCC2)NC(=O)c2ccc(-c3cccc(F)c3)o2)cc1 [Compound 117, 5-(3-Fluoro-phenyl)-furan-2-carboxylic acid {2-cyclohexyl-1-(S)-[1-(S)-methyl-2-(4-methylsulfanyl-phenylamino)-ethylcarbamoyl]-ethyl}-amide] |  | < 100 |  |  |  |
| COc1cccc(C(=O)NC(C(=O)N[C@@H](COCc2ccccc2)CN2CCc3cc(F)ccc32)c2ccccc2)c1 (mixture of isomers) [Compound 36, N-(S)-{[1-(R)-Benzyloxymethyl-2-(5-fluoro-2,3-dihydro-indol-1-yl)-ethylcarbamoyl]-phenyl-methyl}-3-methoxy-benzamide] |  | < 100 |  |  |  |
